The source of these data is patent publication US9963455B2, “Pyrazolo[1,5-a]pyrimidines as antiviral compounds” (Curovir AB, priority 2014, dated 2018).

Some results are limits rather than exact numbers.

One data set has as its system Ljungan virus strain 012. The data set can be described thus: CPE inhibition in mammalian cell culture, LV012. It counts as cell-based. As to conditions: Parechovirus B, read-out: antiviral effect, LV012; for inhibition at 10 µM: Conc. 10 µM.
The subject of another data set is Ljungan virus strain 145. The data set can be described thus: CPE inhibition in mammalian cell culture, LV145. It counts as cell-based. More on the design: inhibition: dose or concentration left out as unconfirmed. As to conditions: Parechovirus B; for inhibition: Conc.
The subject of data set [1] is encephalomyocarditis virus. The data set can be described thus: CPE inhibition in mammalian cell culture, EMCV. Set-up: inhibition: dose or concentration left out as unconfirmed. Conditions: Cardiovirus A, read-out: antiviral effect, EMCV; for inhibition: Conc. Type of data set: cell-based.
Data set [2] has as its system Human parechovirus strain 1. As to the kind of experiment: CPE inhibition in mammalian cell culture, HPeV-1. As to conditions: Parechovirus A, read-out: antiviral effect, HPeV-1; for inhibition at 10 µM: Conc. 10 µM. It counts as cell-based.
The test system of another data set is Porcine Tescho virus. The data set can be described thus: microbe, parasite or virus in culture. It counts as cell-based. More on the design: dose or concentration left out as unconfirmed. As to conditions: Conc.; read-out: antiviral effect, PTV.
The next data set relates to Enterovirus strain 30. As to the kind of experiment: CPE inhibition in mammalian cell culture, EV30. Type of data set: cell-based. As to conditions: read-out: antiviral effect, EV30; for inhibition at 10 µM: Conc. 10 µM.
The next data set concerns Enterovirus strain 71. As to the kind of experiment: CPE inhibition in mammalian cell culture, EV71. Set-up: inhibition: dose or concentration left out as unconfirmed. It counts as cell-based. Conditions: for inhibition: Conc.
The test system of data set [3] is coxsackie B virus strain 1. The data set can be described thus: CPE inhibition in mammalian cell culture, Cox-B1. Set-up: inhibition: dose or concentration left out as unconfirmed. It counts as cell-based. Conditions: read-out: antiviral effect, B1.
The test system of data set [4] is coxsackie B virus strain 2. As to the kind of experiment: CPE inhibition in mammalian cell culture, Cox-B2. Type of data set: cell-based. More on the design: inhibition: dose or concentration left out as unconfirmed. As to conditions: read-out: antiviral effect, B2.
The test system of data set [5] is coxsackie B virus strain 4. As to the kind of experiment: CPE inhibition in mammalian cell culture, Cox-B4. Type of data set: cell-based. More on the design: inhibition: dose or concentration left out as unconfirmed. As to conditions: read-out: antiviral effect, B4.
Data set [6] has as its system coxsackie B virus strain 5. As to the kind of experiment: CPE inhibition in mammalian cell culture, Cox-B5. Type of data set: cell-based. More on the design: inhibition: dose or concentration left out as unconfirmed. As to conditions: read-out: antiviral effect, B5.
The test system of data set [7] is coxsackie B virus strain 3. As to the kind of experiment: CPE inhibition in mammalian cell culture, Cox-B3. Type of data set: cell-based. More on the design: inhibition: dose or concentration left out as unconfirmed.
The next data set relates to polio virus strain 1. As to the kind of experiment: microbe, parasite or virus in culture. Type of data set: cell-based. Set-up: inhibition: dose or concentration left out as unconfirmed. As to conditions: read-out: antiviral effect, Polio 1.
In data set [8] the test system is Coxsackie B3 virus, Nancy strain. The data set can be described thus: Anti-viral efficacy against Coxsackie virus in a neutropenic mouse model. It counts as in vivo, Male BALB/c mice. Conditions: neutropenic BALB/c mice, Coxsackie B3 i.p., 200 mg/kg once daily per orally from day 1 or day 3. On the procedure:
The FIGURE is a diagram showing the number of surviving animals as a function of the number of days after infections with Coxsackie B3 virus, in mice treated with the compound of Ex. 9, 200 mg/kg once daily per orally starting on day 1 (group 1) or on day 3 (group 2), and in mice treated with vehicle only (0.4% Tween 80, 2% glycerol and 15% β-hydroxypropyl cyclodextrin).
Evaluation of Anti-Viral Efficacy Against Coxsackie Virus in a Neutropenic Mouse Model Test System Male BALB/c mice, weighing 22-26 grams were used with 4 animals/group. Neutropenic induction: Cyclophosphamide Challenge organism: Coxsackie (human origin) virus CVB3 Route of infection: Intraperitoneal Route of administration: per oral End point: Cumulative survival
All experimental procedures involving animals were performed according to protocols approved by the Institutional Animal Ethics Committee of Anthem Biosciences. The mice, male BALB/c mice were housed 4 animals per cage and allowed access to feed and water ad libitum under controlled conditions. Mice were acclimatized for 7 days prior to the study. The animals were observed daily for general health during this period. […]
The animals were observed daily during the study period for signs of mortality, morbidity (paralysis) and signs of acute toxicity. Abnormal clinical signs were recorded if observed.

For data set [9] the following is noted: female Sprague Dawley rats, single dose.
The conditions of data set [10]: Sprague Dawley rats, 250 and 750 mg/kg body weight/day for 7 days.
The test system of a further data set is Enterovirus strain 6. The data set can be described thus: microbe, parasite or virus in culture. It counts as cell-based. More on the design: inhibition: dose or concentration left out as unconfirmed. Conditions: read-out: antiviral effect, EV6.
For another data set, the system named is EV68. The data set can be described thus: CPE inhibition in mammalian cell culture, EV68. More on the design: antiviral effect, EV68: unit of the concentration uncertain. Conditions: Conc. 0.1 (unit uncertain). It counts as cell-based.
The test system of the next data set is Theiler. As to the kind of experiment: CPE inhibition in mammalian cell culture, Theiler. Conditions: Conc. 10 μM. It counts as cell-based.
The mark [11] stands for this setting: read-out: antiviral effect, LV145.
Where [12] appears, read: read-out: antiviral effect, EV71.

For `COc1ccc(-c2c(C)nn3c(NCC(C)c4ccccc4)cc(C)nc23)cc1OC` (stereo not shown) [Ex. 10, 3-(3,4-dimethoxyphenyl)-2,5-dimethyl-N-(2-phenylpropyl)pyrazolo[1,5-a]pyrimidin-7-amine], the inhibition at 10 µM with Ljungan virus strain 012 stood at 0%; in data set [2], 3%; in the data set on Enterovirus strain 30, 88%. The inhibition with Ljungan virus strain 145 (setting [11]) was determined as 41%; in data set [1], 25%; in the data set on Porcine Tescho virus, 43%; with Enterovirus strain 71 (setting [12]), 58%. This compound also displayed an inhibition at 2.5 µM in the data set with Ljungan virus strain 145 (LV145, Conc. 2.5 μM) of 69%. Moreover, the inhibition at 10000 µM in data set [3] came out at 79%; in [4], 97%; in data set [5], 94%; in data set [6], 92%.
On to `CC(C)c1cc(NCc2ccccc2)n2ncc(-c3ccccc3)c2n1` [Ex. 4, N-benzyl-5-isopropyl-3-phenyl-pyrazolo[1,5-a]pyrimidin-7-amine], for which the inhibition at 10 µM with Ljungan virus strain 012 amounted to 28%; in data set [2], 7%; with Enterovirus strain 30, 0%. Besides, the inhibition stood at 61% in the data set with Ljungan virus strain 145 (setting [11]), 81% in [1], 87% with Porcine Tescho virus and 69% with Enterovirus strain 71 (setting [12]). Moreover, the inhibition at 2.5 µM with Enterovirus strain 71 (EV71, Conc. 2.5 μM) was determined as 46%. In addition, the inhibition at 10000 µM in [3] worked out at 36%; in data set [4], 0%; in [7] (read-out: antiviral effect, B3) it was 0%; in data set [5], 53%; in [6], 0%; with polio virus strain 1, 17%.
For `COc1ccc(-c2c(C)nn3c(NCc4ccc(F)cc4)cc(C)nc23)cc1OC` [Ex. 9, 3-(3,4-dimethoxyphenyl)-N-[(4-fluorophenyl)methyl]-2,5-dimethyl-pyrazolo[1,5-a]pyrimidin-7-amine], the results for the inhibition at 10 µM (in the data set on Ljungan virus strain 012; in data set [2]; with Enterovirus strain 30) were 18%, 19% and 35%, respectively. For the same compound, the inhibition in the data set with Ljungan virus strain 145 (setting [11]) worked out at 59%; in data set [1] it was 14%; with Porcine Tescho virus, 23%; with Enterovirus strain 71 (setting [12]) it was 16%. Moreover, the inhibition at 0.25 µM with Enterovirus strain 71 (EV71, Conc. 0.25 μM) was 93%. For the same compound, the inhibition at 10000 µM stood at 53% in data set [3]; 76% in [4]; 48% in data set [5]; 73% in data set [6]; 91% in the data set on polio virus strain 1. Moreover, the Cumulative survival entry in data set [8] is “has an antiviral effect in vivo and can extend the life of the animals”. Where the note is “BALB/C mice, 200 and 400 mg/kg body weight/day for 7 days”, the “adverse clinical signs or mortality” value is “did not reveal any adverse clinical signs or mortality”. In addition, under “mouse, in vivo, po”, the “No Observed Adverse Effect Level (NOAEL)” value came out at 400 mg/kg body weight/day. Further, in data set [9], the maximum tolerable dose was > 2000 mg/kg body weight. In addition, the “adverse clinical signs and mortality” value in data set [10] is “adverse clinical signs in both sexes at 750 mg/kg and mortality in one female at 750 mg/kg”.
Consider `COc1ccc(-c2c(C)nn3c(NCc4ccncc4)cc(C)nc23)cc1OC` [Ex. 75, 3-(3,4-dimethoxyphenyl)-2,5-dimethyl-N-(4-pyridylmethyl)pyrazolo[1,5-a]pyrimidin-7-amine], for which the inhibition at 100 µM worked out at 0% in the data set on Ljungan virus strain 012 (Conc. 0.1 mM); 0% with Ljungan virus strain 145 (Conc. 0.1 mM, read-out: antiviral effect, LV145); 0% in data set [1] (Conc. 0.1 mM); 0% in data set [2] (Conc. 0.1 mM); 100% in the data set with Enterovirus strain 30 (Conc. 0.1 mM); 85% in the data set on Enterovirus strain 71 (Conc. 0.1 mM, read-out: antiviral effect, EV71). For the same compound, the inhibition came to 90% in the data set on Enterovirus strain 6; 100% in data set [3]; 100% in data set [4]; 89% in [7] (read-out: antiviral effect, B3); 100% in data set [5]; 98% in data set [6]. The inhibition with polio virus strain 1 is 100%. The “antiviral effect, EV68” value in the data set on EV68 came out at 31%. In addition, the inhibition at 0.01 µM in [7] (read-out: % inh.) is 85%.
`Cc1cc(NCc2ccc(F)cc2)n2nc(C)c(-c3ccc(C(F)(F)F)cc3)c2n1` [Ex. 104, N-[(4-fluorophenyl)methyl]-2,5-dimethyl-3-[4-(trifluoromethyl)phenyl]pyrazolo[1,5-a]pyrimidin-7-amine] came in with an inhibition at 10 µM in the data set with Theiler of 59%.
As to `COc1ccc(-c2c(C)nn3c(NCc4ccc(C)cc4)cc(C)nc23)cc1OC` [Ex. 6, 3-(3,4-dimethoxyphenyl)-2,5-dimethyl-N-(p-tolylmethyl)pyrazolo[1,5-a]pyrimidin-7-amine], the inhibition at 10 µM in the data set on Ljungan virus strain 012 came to 28%; in data set [2], 60%; in the data set on Enterovirus strain 30, 44%. For the same compound, the inhibition with Ljungan virus strain 145 (setting [11]) came out at 63%; in data set [1], 0%; with Porcine Tescho virus it was 62%; in the data set with Enterovirus strain 71 (setting [12]), 37%. Further, in the data set on Ljungan virus strain 145 (LV145, Conc. 5.0 μM), the inhibition at 5 µM is 56%. Moreover, the inhibition at 10000 µM in data set [3] stood at 35%; in data set [4], 82%; in data set [5], 69%; in data set [6], 54%; in the data set on polio virus strain 1 it was 19%.
